Measurements from the CheMixHub ionic liquid set.

Assay: xn = mol fraction of the nth substance listed

CC(N)C(=O)[O-].CCCC[n+]1ccn(C)c1C + O
viscosity [mPa·s], 100 kPa
Conditions	x1 = 0.1003	x1 = 0.3009	x1 = 0.6987	x1 = 1
293.15 K	22.3	–	200	370
313.15 K	–	–	70	–
318.15 K	–	18.9	–	87

CCCCCCCCCCCC[N+](C)(C)Cc1ccccc1.[Cl-] + O
electrical conductivity [S/m], 101 kPa
Conditions	293.15 K	298.15 K	303.15 K	308.15 K	313.15 K
x1 = 5.874e-05	0.0232	0.0261	0.0289	0.0318	0.0349
x1 = 8e-05	0.0313	0.0351	0.0389	0.0428	0.0469
x1 = 9.982e-05	0.0388	0.0434	0.0481	0.053	0.0579
x1 = 0.0001187	0.0459	0.0513	0.0569	0.0626	0.0686
x1 = 0.0001384	0.0531	0.0594	0.0658	0.0724	0.0792
x1 = 0.0001594	0.0603	0.0673	0.0744	0.0819	0.0899
x1 = 0.000182	0.0659	0.0734	0.0812	0.0897	0.0989
x1 = 0.0002056	0.0702	0.0783	0.087	0.0963	0.106
x1 = 0.0002284	0.0741	0.0827	0.092	0.102	0.113
x1 = 0.0002522	0.0778	0.0871	0.0969	0.108	0.12
x1 = 0.0002717	0.0809	0.0906	0.101	0.113	0.125
x1 = 0.0002895	0.0836	0.0937	0.105	0.117	0.13
x1 = 0.0003122	0.0872	0.0978	0.109	0.122	0.136

CCCCCCCCCC[N+](CC)(CC)CCCCCCCCCC.[Br-] + O
electrical conductivity [S/m]
Conditions	290.55 K	290.75 K	290.85 K	292.05 K	301.55 K	303.15 K	304.55 K	306.65 K	311.65 K
100 kPa, x1 = 1.08e-06	–	–	–	–	–	0.0029	–	–	–
101 kPa, x1 = 0.0004187	0.031	0.033	0.034	0.053	0.079	–	0.082	0.084	0.089
